Columns and labels:
Staphylococcus aureus = assay: MIC assay using Staphylococcus aureus in trypticase soy broth, growth scored by turbidity; assay type: cell-based; conditions: for growth (turbidity score): aerobic 37° C., three days; for minimum inhibitory concentration: S. aureus at pH 6.0
Protocol: (§1) Minimal inhibitory concentration (MIC) assays of several hop compounds were conducted using a Staphylococcus aureus species and vaginal isolates Lactobacillus vaginalias, Lactobacillus crispatus, Lactobacillus gasseri, and Lactobacillus jensenii as test microorganisms. Lactobacillus assays were conducted in Lactobacillus MRS broth (Difco) tubes. A 0.1 ml aliquot of a 1% (w/w) solution of each hop acid in alcohol was added to a tube of sterile MRS broth to give a final concentration of 100 ppm of the hop. This solution was serially diluted in tubes with sterile MRS broth using a two-fold dilution series. A second dilution series prepared as above, but using 0.1 ml alcohol without hop acid, was used as a positive control of bacterial growth. Each tube was inoculated with a fresh culture (10^4 cells) of a Lactobacillus species in MRS broth. The cultures were incubated anaerobically in a CO2 incubator at 28° C. for five days. Growth was evaluated by visually assessing and scoring development of turbidity in the tube of broth.
The MIC assays for Staphylococcus aureus were conducted in Difco trypticase soy broth (TSB) using the same serial dilution technique and the inoculum level as described above. The pH of the TSB was adjusted to pH7.0, pH 6.0, or pH5.0 using hydrochloric acid. The tubes were incubated aerobically at 37° C. for three days and growth was evaluated by visually assessing and scored the development of turbidity in the broth.

Lactobacillus species = assay: MIC assay using Lactobacillus species (vaginal isolates) in MRS broth, growth scored by turbidity; assay type: cell-based; conditions: for growth (turbidity score): MRS at pH 6.3, anaerobic 28° C., five days; for concentration as high as which Lactobacillus exhibited strong growth: Lactobacillus species tested
Protocol: as §1

## hexahydro beta acids
Staphylococcus aureus; 0.2 ppm, TSB at pH 5.0
  growth (turbidity score): No growth
Staphylococcus aureus; 0.2 ppm, TSB at pH 6.0
  growth (turbidity score): + Growth
Staphylococcus aureus; 0.2 ppm, TSB at pH 7.0
  growth (turbidity score): +++ Growth
Staphylococcus aureus; 0.39 ppm, TSB at pH 5.0
  growth (turbidity score): No growth
Staphylococcus aureus; 0.39 ppm, TSB at pH 6.0
  growth (turbidity score): No growth
Staphylococcus aureus; 0.39 ppm, TSB at pH 7.0
  growth (turbidity score): ++ Growth
Staphylococcus aureus; 0.78 ppm, TSB at pH 5.0
  growth (turbidity score): No growth
Staphylococcus aureus; 0.78 ppm, TSB at pH 6.0
  growth (turbidity score): No growth
Staphylococcus aureus; 0.78 ppm, TSB at pH 7.0
  growth (turbidity score): + Growth
Staphylococcus aureus; 1.56 ppm, TSB at pH 5.0
  growth (turbidity score): No growth
Staphylococcus aureus; 1.56 ppm, TSB at pH 6.0
  growth (turbidity score): No growth
Staphylococcus aureus; 1.56 ppm, TSB at pH 7.0
  growth (turbidity score): +/− Growth
Staphylococcus aureus; 3.125 ppm, TSB at pH 5.0
  growth (turbidity score): No growth
Staphylococcus aureus; 3.125 ppm, TSB at pH 6.0
  growth (turbidity score): No growth
Staphylococcus aureus; 3.125 ppm, TSB at pH 7.0
  growth (turbidity score): No growth
Staphylococcus aureus; 6.25 ppm, TSB at pH 5.0
  growth (turbidity score): No growth
Staphylococcus aureus; 6.25 ppm, TSB at pH 6.0
  growth (turbidity score): No growth
Staphylococcus aureus; 6.25 ppm, TSB at pH 7.0
  growth (turbidity score): No growth
Staphylococcus aureus; 12.5 ppm, TSB at pH 5.0
  growth (turbidity score): No growth
Staphylococcus aureus; 12.5 ppm, TSB at pH 6.0
  growth (turbidity score): No growth
Staphylococcus aureus; 12.5 ppm, TSB at pH 7.0
  growth (turbidity score): No growth
Staphylococcus aureus; 25 ppm, TSB at pH 5.0
  growth (turbidity score): No growth
Staphylococcus aureus; 25 ppm, TSB at pH 6.0
  growth (turbidity score): No growth
Staphylococcus aureus; 25 ppm, TSB at pH 7.0
  growth (turbidity score): No growth
Staphylococcus aureus; 50 ppm, TSB at pH 5.0
  growth (turbidity score): No growth
Staphylococcus aureus; 50 ppm, TSB at pH 6.0
  growth (turbidity score): No growth
Staphylococcus aureus; 50 ppm, TSB at pH 7.0
  growth (turbidity score): No growth
Staphylococcus aureus; 100 ppm, TSB at pH 5.0
  growth (turbidity score): No growth
Staphylococcus aureus; 100 ppm, TSB at pH 6.0
  growth (turbidity score): No growth
Staphylococcus aureus; 100 ppm, TSB at pH 7.0
  growth (turbidity score): No growth
Staphylococcus aureus
  concentration as low as which S. aureus showed no to very weak growth: 1.56 ppm
  minimum inhibitory concentration: 0.78 ppm
Lactobacillus species; 0.2 ppm
  growth (turbidity score): +++ Growth
Lactobacillus species; 0.39 ppm
  growth (turbidity score): +++ Growth
Lactobacillus species; 0.78 ppm
  growth (turbidity score): +++ Growth
Lactobacillus species; 1.56 ppm
  growth (turbidity score): +++ Growth
Lactobacillus species; 3.125 ppm
  growth (turbidity score): +++ Growth
Lactobacillus species; 6.25 ppm
  growth (turbidity score): +++ Growth
Lactobacillus species; 12.5 ppm
  growth (turbidity score): +++ Growth
Lactobacillus species; 25 ppm
  growth (turbidity score): +/− Growth
Lactobacillus species; 50 ppm
  growth (turbidity score): No growth
Lactobacillus species; 100 ppm
  growth (turbidity score): No growth
Lactobacillus species
  concentration as high as which Lactobacillus exhibited strong growth: 12.5 ppm

## tetrahydroiso alpha acids
Staphylococcus aureus; 0.2 ppm, TSB at pH 5.0
  growth (turbidity score): No growth
Staphylococcus aureus; 0.2 ppm, TSB at pH 6.0
  growth (turbidity score): ++ Growth
Staphylococcus aureus; 0.2 ppm, TSB at pH 7.0
  growth (turbidity score): +++ Growth
Staphylococcus aureus; 0.39 ppm, TSB at pH 5.0
  growth (turbidity score): No growth
Staphylococcus aureus; 0.39 ppm, TSB at pH 6.0
  growth (turbidity score): +/− Growth
Staphylococcus aureus; 0.39 ppm, TSB at pH 7.0
  growth (turbidity score): ++ Growth
Staphylococcus aureus; 0.78 ppm, TSB at pH 5.0
  growth (turbidity score): No growth
Staphylococcus aureus; 0.78 ppm, TSB at pH 6.0
  growth (turbidity score): No growth
Staphylococcus aureus; 0.78 ppm, TSB at pH 7.0
  growth (turbidity score): + Growth
Staphylococcus aureus; 1.56 ppm, TSB at pH 5.0
  growth (turbidity score): No growth
Staphylococcus aureus; 1.56 ppm, TSB at pH 6.0
  growth (turbidity score): No growth
Staphylococcus aureus; 1.56 ppm, TSB at pH 7.0
  growth (turbidity score): +/− Growth
Staphylococcus aureus; 3.125 ppm, TSB at pH 5.0
  growth (turbidity score): No growth
Staphylococcus aureus; 3.125 ppm, TSB at pH 6.0
  growth (turbidity score): No growth
Staphylococcus aureus; 3.125 ppm, TSB at pH 7.0
  growth (turbidity score): No growth
Staphylococcus aureus; 6.25 ppm, TSB at pH 5.0
  growth (turbidity score): No growth
Staphylococcus aureus; 6.25 ppm, TSB at pH 6.0
  growth (turbidity score): No growth
Staphylococcus aureus; 6.25 ppm, TSB at pH 7.0
  growth (turbidity score): No growth
Staphylococcus aureus; 12.5 ppm, TSB at pH 5.0
  growth (turbidity score): No growth
Staphylococcus aureus; 12.5 ppm, TSB at pH 6.0
  growth (turbidity score): No growth
Staphylococcus aureus; 12.5 ppm, TSB at pH 7.0
  growth (turbidity score): No growth
Staphylococcus aureus; 25 ppm, TSB at pH 5.0
  growth (turbidity score): No growth
Staphylococcus aureus; 25 ppm, TSB at pH 6.0
  growth (turbidity score): No growth
Staphylococcus aureus; 25 ppm, TSB at pH 7.0
  growth (turbidity score): No growth
Staphylococcus aureus; 50 ppm, TSB at pH 5.0
  growth (turbidity score): No growth
Staphylococcus aureus; 50 ppm, TSB at pH 6.0
  growth (turbidity score): No growth
Staphylococcus aureus; 50 ppm, TSB at pH 7.0
  growth (turbidity score): No growth
Staphylococcus aureus; 100 ppm, TSB at pH 5.0
  growth (turbidity score): No growth
Staphylococcus aureus; 100 ppm, TSB at pH 6.0
  growth (turbidity score): No growth
Staphylococcus aureus; 100 ppm, TSB at pH 7.0
  growth (turbidity score): No growth
Staphylococcus aureus
  concentration as low as which S. aureus showed no to very weak growth: 1.56 ppm
  minimum inhibitory concentration: 0.78 ppm
Lactobacillus species; 0.2 ppm
  growth (turbidity score): +++ Growth
Lactobacillus species; 0.39 ppm
  growth (turbidity score): +++ Growth
Lactobacillus species; 0.78 ppm
  growth (turbidity score): +++ Growth
Lactobacillus species; 1.56 ppm
  growth (turbidity score): +++ Growth
Lactobacillus species; 3.125 ppm
  growth (turbidity score): +++ Growth
Lactobacillus species; 6.25 ppm
  growth (turbidity score): +++ Growth
Lactobacillus species; 12.5 ppm
  growth (turbidity score): ++ Growth
Lactobacillus species; 25 ppm
  growth (turbidity score): +/− Growth
Lactobacillus species; 50 ppm
  growth (turbidity score): No growth
Lactobacillus species; 100 ppm
  growth (turbidity score): No growth
Lactobacillus species
  concentration as high as which Lactobacillus exhibited strong growth: 12.5 ppm

Source: patent US7005453B1, “Use of hop acids to inhibit growth of Staphylococcus aureus and prevent toxic shock syndrome” (Miller Brewing Company, priority 1999, dated 2006)
